The text below walks through data of patent US20100081679A1, “DIAMINOPYRIMIDINES AS FUNGICIDES” (Bayer CropScience AG, priority 2007, published 2010).

Marks after values point to notes of the source that are not given here.

A short description of the first series: logP determination via retention times, calibrated with unbranched alkan-2-ones. It counts as physicochemical. As to conditions: HPLC on reversed-phase C 18, EEC Directive 79/831 Annex V.A8; method *: 40° C., 0.1% aqueous formic acid and acetonitrile, linear gradient 10% to 95% acetonitrile.
`CC1CC(C)CN(c2cccc(Nc3ncc(Cl)c(NC4CC4)n3)c2)C1` (stereo not shown) [compound 528]: the logP is on record as 2.46*. On to `FC(F)(F)Oc1ccc(Nc2ncc(Br)c(NCC3CC3)n2)cc1` [compound 476], for which the logP was 3.1*. For `CNC(=O)c1ccc(Nc2ncc(Cl)c(NCC3CC3)n2)cc1` [compound 510], the logP is 1.44*. Same read-out and setting: the figure for `CC(=O)c1cc(Nc2ncc(Cl)c(NCC3CC3)n2)ccc1Cl` [compound 540] is 2.51*; for `Oc1ccc(Nc2ncc(Cl)c(NCC3CC3)n2)cc1F` [compound 554] it is 1.49*; for `CCC(=O)Nc1cccc(Nc2ncc(Br)c(NCC3CC3)n2)c1` [compound 483] it is 1.66*.

As for `CCCCC(=O)Oc1ccc(Nc2ncc(Cl)c(NCC3CC3)n2)cc1` [compound 551], the logP is 3.8*. As to `O=C1CCc2cc(Nc3ncc(Cl)c(NCC4CC4)n3)ccc2N1` [compound 517], the logP is reported as 1.19*.

As to `CC1COC(=O)N1c1cccc(Nc2ncc(Br)c(NC3CC3)n2)c1` (stereo not shown) [compound 533], the logP is on record as 1.68*.

Staying with this series, now noted: HPLC on reversed-phase C 18, method **: 43° C.; 0.1% aqueous phosphoric acid and acetonitrile; linear gradient 10% to 95% acetonitrile.
For `COC(=O)Nc1ccc(Nc2ncc(Cl)c(N(C)CC3CC3)n2)cc1` [compound 970], the logP is 1.99**.

The series is the same for the next values; noted with them: HPLC on reversed-phase C18, method **: 43° C.; mobile phase 0.1% aqueous phosphoric acid and acetonitrile; linear gradient 10% to 95% acetonitrile.
Take `CC(C)NS(=O)(=O)Cc1cccc(Nc2ncc(Cl)c(NC3CC3)n2)c1` [compound 325]: the logP was 1.78**. Regarding `O=S(=O)(Cc1ccc(Nc2ncc(Cl)c(NC3CC3)n2)cc1)N1CCOCC1` [compound 314], the logP is reported as 1.57**.

Still in this series, the particulars now being: HPLC on reversed-phase C18, method *: 40° C., 0.1% aqueous formic acid and acetonitrile, linear gradient 10% to 95% acetonitrile.
`CCCOc1cccc(Nc2ncc(C(F)(F)F)c(NC3CC3)n2)c1` [compound 699]: the logP was 3.92*. The same measure, in the same setting: the figure for `O=C(c1cccc(Nc2ncc(Cl)c(NC3CC3)n2)c1)N1CCCCC1` [compound 770] is 1.94*; for `CC(O)c1cccc(Nc2ncc(C(F)(F)F)c(NCC3CC3)n2)c1` (stereo not shown) [compound 705] it is 2.16*.

As for `Clc1cnc(Nc2ccccc2Br)nc1NC1CC1` [compound 871], the logP is listed as 2.7*. Still for that read-out and setting: the same measure for `O=C(O)Cc1cccc(Nc2ncc(Cl)c(NC3CC3)n2)c1` [compound 768]: 1.23*.

For the molecule `CCC(C)c1ccc(Nc2ncc(Cl)c(NC3CC3)n2)cc1` (racemic) [compound 954], the logP was 2.77*.

As to `COc1cc(Nc2ncc(C(F)(F)F)c(NC3CC3)n2)ccc1Cl` [compound 700], the logP is listed as 3.59*. The same measure, in the same setting: the same measure for `CC(=O)CCc1cccc(Nc2ncc(C(F)(F)F)c(NC3CC3)n2)c1` [compound 959]: 2.68*; for `FC(F)(F)c1cnc(Nc2ccccc2)nc1NCC1CC1` [compound 922]: 2.99*; for `Oc1ccc(Nc2ncc(Cl)c(NC3CC3)n2)cc1F` [compound 105]: 1.25*.

Staying with this series, now noted: HPLC on reversed-phase C18, method *: 40° C.; mobile phase 0.1% aqueous formic acid and acetonitrile; linear gradient 10% to 95% acetonitrile.
On to `Fc1ccccc1Nc1ncc(Cl)c(NC2CC2)n1` [compound 275], for which the logP is 2.09*. As to `CC(C)(C)C(=O)Nc1ccc(Nc2ncc(Br)c(NC3CC3)n2)cc1` [compound 347], the logP was 1.83*. With `CC(=O)c1ccc(Nc2ncc(Br)c(NC3CC3)n2)cc1` [compound 357], the logP was 2.09*. On the same count and under the same terms, the same measure for `COC(=O)N(C)c1ccc(Nc2ncc(Cl)c(NC3CC3)n2)cc1` [compound 339]: 1.63*; for `CCCOc1cccc(Nc2ncc(Br)c(NC3CC3)n2)c1` [compound 336]: 2.83*. Same read-out and setting: the figure for `COc1ccc(Nc2ncc(Cl)c(NC3CC3)n2)cc1` [compound 284] is 1.47*. `CC(C)(C)OC(=O)Nc1cccc(Nc2ncc(Cl)c(NC3CC3)n2)c1` [compound 330]: the logP is recorded as 2.27*. Still for that read-out and setting: the same measure for `Clc1ccc(Nc2ncc(Cl)c(NC3CC3)n2)cc1` [compound 285]: 2.54*.

The same series, now with this note: HPLC on reversed-phase C18 column (EEC Directive 79/831 Annex V.A8); method *: 40° C.; 0.1% aqueous formic acid and acetonitrile; linear gradient 10% to 95% acetonitrile.
Regarding `O=C1NC(=O)C(c2ccc(Nc3ncc(Cl)c(NC4CC4)n3)cc2)N1` (stereo not shown) [compound 176], the logP is recorded as 0.61*. With `CCC(=O)c1ccc(Nc2ncc(Cl)c(NC3CC3)n2)cc1` [compound 257], the logP is 2.34*.

`Brc1cnc(Nc2ccc(-c3nccs3)cc2)nc1NC1CC1` [compound 251]: the logP was 2.49*.

Still in this series, the particulars now being: HPLC reversed-phase C 18, EEC Directive 79/831 Annex V.A8; method **: 43° C., 0.1% aqueous phosphoric acid and acetonitrile, linear gradient 10% to 95% acetonitrile.
As for `Cc1nc(Nc2ccc(N3CCOC3=O)cc2)nc(NC2CC2)c1Cl` [compound 840], the logP is listed as 1.31**.

Staying with this series, now noted: HPLC reversed-phase C 18, EEC Directive 79/831 Annex V.A8; method *: 40° C., 0.1% aqueous formic acid and acetonitrile, linear gradient 10% to 95% acetonitrile.
For `CN(C)C(=O)c1ccc(Nc2ncc(C(F)(F)F)c(NC3CC3)n2)cc1` [compound 824], the logP is on record as 2.08*. Still for that read-out and setting: the same measure for `COCC(C)NC(=O)c1cccc(Nc2ncc(Cl)c(NC3CC3)n2)c1` (stereo not shown) [compound 796]: 1.47*. On the same count and under the same terms, the figure for `CC(C)(C)c1cccc(Nc2ncc(Cl)c(NC3CC3)n2)c1` [compound 778] is 2.9*.

With `CSC(C)c1cccc(Nc2ncc(Br)c(NC3CC3)n2)c1` (stereo not shown) [compound 811], the logP is 2.63*. The same measure, in the same setting: the same measure for `CO/N=C(\C)Cc1cccc(Nc2ncc(Cl)c(NC3CC3)n2)c1` [compound 854]: 2.2*; for `CC(C)c1cccc(Nc2ncc(Cl)c(NCC3CC3)n2)c1` [compound 777]: 2.71*.

The same series, now with this note: method **: HPLC reversed-phase C 18, 43° C., 0.1% aqueous phosphoric acid and acetonitrile, linear gradient 10% to 95% acetonitrile.
For the molecule `O=S(=O)(Nc1ccccc1)c1ccc(Nc2ncc(Cl)c(NC3CC3)n2)cc1` [compound 27], the logP is on record as 2.56**. For `O=C(O)c1ccc(Nc2ncc(Cl)c(NC3CC3)n2)cc1` [Example 35], the logP is 1.55**. On the same count and under the same terms, the same measure for `Cc1cc(C)nc(NS(=O)(=O)c2ccc(Nc3ncc(Cl)c(NC4CC4)n3)cc2)n1` [compound 26]: 1.72**.

The series is the same for the next values; noted with them: method **: HPLC, reversed-phase C 18, 43° C., mobile phase 0.1% aqueous phosphoric acid and acetonitrile, linear gradient from 10% to 95% acetonitrile.
On to `Clc1cnc(Nc2cccc(CN3CCCC3)c2)nc1NC1CC1` [compound 1043], for which the logP was 0.92**. On the same count and under the same terms, the figure for `FS(F)(F)(F)(F)c1cccc(Nc2ncc(Cl)c(NC3CC3)n2)c1` [compound 1052] is 3.7**.

Staying with this series, now noted: method *: HPLC reversed-phase C18, 40° C., 0.1% aqueous formic acid and acetonitrile, linear gradient 10% to 95% acetonitrile.
Take `O=C1Cc2cc(Nc3ncc(Cl)c(NC4CC4)n3)ccc2N1` [Example 56]: the logP was 1.05*.

Consider `COc1cc(Nc2ncc(C)c(NC3CC3)n2)cc(OC)c1OC` [compound 52], for which the logP is 1.47*. On to `O=C(NCc1ccc(Nc2ncc(Cl)c(NC3CC3)n2)cc1)OCc1ccccc1` [Example 95], for which the logP is recorded as 2.2*. The same measure, in the same setting: the figure for `O=C1CCCN1Cc1cccc(Nc2ncc(Cl)c(NC3CC3)n2)c1` [compound 433] is 1.45*; for `COc1cc(Nc2ncc(Cl)c(NC3CC3)n2)cc(OC)c1OC` [Example 4] it is 1.73*. On to `COc1ccc(Nc2ncc(Br)c(NCC3CC3)n2)cc1OC` [compound 409], for which the logP is given as 1.68*. Same read-out and setting: the figure for `Fc1ccc(Nc2ncc(Cl)c(NC3CC3)n2)cc1` [Example 80] is 1.8*; for `COC(=O)Nc1cccc(Nc2ncc(Br)c(NCC3CC3)n2)c1` [compound 458] it is 1.73*. For the molecule `N#Cc1cnc(Nc2ccccc2)nc1NCC1CC1` [compound 87], the logP is reported as 2.77*. Regarding `O=S(=O)(Cc1ccc(Nc2ncc(Cl)c(NC3CC3)n2)cc1)Nc1ccccc1` [compound 369], the logP is listed as 2.18*.

The same series, now with this note: method *: HPLC reversed-phase C 18, temperature 40° C.; mobile phase 0.1% aqueous formic acid and acetonitrile; linear gradient 10% to 95% acetonitrile.
Consider `CS(=O)(=O)c1ccc(Nc2ncc(C#N)c(NC3CC3)n2)cc1` [compound 605], for which the logP is reported as 1.92*.

`CN(C)S(=O)(=O)c1ccc(Nc2ncc(C(F)(F)F)c(NC3CC3)n2)cc1` [compound 645]: the logP is listed as 2.84*. For `CC(C)(C)C(=O)Nc1cccc(Nc2ncc(C(F)(F)F)c(NC3CC3)n2)c1` [compound 650], the logP is given as 2.6*. For `N#Cc1ccc(Nc2ncc(F)c(NC3CC3)n2)cc1` [compound 575], the logP was 1.73*.

Regarding `O=C(NCC(F)(F)F)c1cccc(Nc2ncc(Br)c(NC3CC3)n2)c1` [compound 622], the logP is 1.91*. As for `CNC(=O)c1cccc(Nc2ncc(C#N)c(NC3CC3)n2)c1` [compound 608], the logP is listed as 1.64*. With `C#Cc1cccc(Nc2ncc(C(F)(F)F)c(NC3CC3)n2)c1` [compound 627], the logP is 3.36*.

On to `COc1cc(Nc2ncc(C(F)(F)F)c(NC3CC3)n2)ccc1NC(C)=O` [compound 639], for which the logP was 1.85*. As to `CC(C)(C)OC(=O)NCc1ccc(Nc2ncc(C#N)c(NC3CC3)n2)cc1` [compound 615], the logP was 2.77*.

In the case of `CC(=O)c1cccc(Nc2ncc(F)c(NC3CC3)n2)c1` [compound 591], the logP was 1.45*.

The same series, now with this note: method *: HPLC, reversed-phase C 18, 40° C., mobile phase 0.1% aqueous formic acid and acetonitrile, linear gradient from 10% to 95% acetonitrile.
Take `CCSCc1cccc(Nc2ncc(Cl)c(NC3CC3)n2)c1` [compound 986]: the logP is given as 2.55*. On the same count and under the same terms, the figure for `FC(F)(F)c1cc(Br)cc(Nc2ncc(Cl)c(NC3CC3)n2)c1` [compound 998] is 4.6*; for `O=C(c1cccc(Nc2ncc(Cl)c(NC3CC3)n2)c1)N1CCNCC1` [compound 1065] it is 0.53*.

Still in this series, the particulars now being: pH 2.3; read-out: logP (pH2.3).
Turning to `FC(F)(F)c1cnc(Cl)nc1NC1CC1` [2-chloro-N-cyclopropyl-5-trifluoromethylpyrimidine-4-amine], the chromatographic logP was 2.39. On the same count and under the same terms, the same measure for `Clc1ncc(Cl)c(NC2CC2)n1` [2,5-Dichloro-N-cyclopropylpyrimidine-4-amine]: 1.79.
